Experimental data reported in patent US9044476B2, “Use of uraria in promoting osteogenesis or providing neuroprotection” (TAIPEI MEDICAL UNIVERSITY, priority 2013, dated 2015).

Key:
Format in all cases: cell-based, human
HOb cells [1] = test: Mineralized matrix formation assay (Alizarin Red-S) in HOb cells; details: for formation of mineralized bone nodules: compounds 100 μM, 12 days
Experimental: (§1) HOb cells were plated in 24-well plates. Three days after plating, the old medium was discarded and the cells were treated with tested extracts (100 μg/ml) in mineralizing media (Osteoblast Differentiation Medium containing ascorbic acid (50 μg/ml) and β-glycerophosphate (10 mM) for 12 days. At the end of experiment, cultures were fixed in 75% ethanol, and mineralized nodule formation was assessed by Alizarin Red-S staining. The bound staining was eluted with a solution of 10% cetylpyridinium chloride and quantified using a microtiter plate reader. Data are shown as mean±SD (n=3). *P<0.05 and **P<0.01 as compared with control (n=3).
as §1, with “tested compounds” for “tested extracts”, “(100 μM)” for “(100 μg/ml)”, “Differentiation Medium)” for “Differentiation Medium”
(§2) Human osteoblasts (HOb) were primary cells derived from a person from a normal femoral bone and obtained from Cell Applications (San Diego, Calif., USA). HOb cells were grown in Osteoblast Growth Medium and maintained at 37° C. in 5% CO2 humidified atmosphere. The medium was changed every other day. To maintain exponential growth, the cells were subcultured every 7 days. HOb cells were used for cell viability, differentiation, and mineralization assays.
The mineralization activities of U. crinita extract and its constituents were measured by Alizarin Red-S staining of calcium. HOb cells were seeded in 24-well plates at a density of 7×10^4 cells per well. Three days after plating, the old medium was discarded and the cells were treated with tested extracts or compounds in mineralizing media (Osteoblast Differentiation Medium) containing ascorbic acid (50 μg/ml) and β-glycerophosphate (10 mM) for 12 days. At the end of experiment, cultures were fixed in 75% ethanol, and calcium deposits were stained for 15 minutes at room temperature with Alizarin Red-S solution (40 mM, pH 4.2). The bound staining was eluted with a solution of 10% (w/v) cetylpyridinium chloride in 10 mM sodium phosphate (pH 7.0) and quantified using a ELISA reader at 550 nm.

HOb cells [2] = test: Alkaline phosphatase (ALP) assay in HOb cells; details: compounds 100 μM, 72 h
Experimental: (§3) HOb cells were seeded in 96-well plates. Twenty-four hours after plating, the old medium was discarded and the cells were treated with tested extracts (100 μg/ml) in Osteoblast Differentiation Medium for 72 h. ALP activity was assessed using the p-nitrophenyl phosphate disodium substrate. Data are shown as mean±SD (n=3). *P<0.05 and **P<0.01 as compared with control (n=3).
as §3, with “compounds” for “extracts”, “μM)” for “μg/ml)”
as §2
The alkaline phosphatase (ALP) activities of U. crinita extract and its constituents were measured with p-nitrophenyl phosphate as the substrate. HOb cells were seeded in 96-well plates at a density of 4×10^3 cells per well. Twenty-four hours after plating, the old medium was discarded and the cells were treated with tested extracts or compounds in Osteoblast Differentiation Medium. After 72 hours incubation, the medium was discarded and the cells rinsed twice with cold PBS, and cells were lysed with lysis buffer (PBS containing 0.1% Triton X-100). The cellular protein concentration in supernatant was determined after incubation with BCA (bicinchoninic acid) protein reagent for 1 hour at 37° C. The reaction was stopped by adding 1M NaOH, and absorbance measured at 560 nm. Furthermore, the ALP activity in supernatant was assayed by incubation for 1 hour at 37° C. in 0.1 M NaHCO3—Na2CO3 buffer, pH 10, containing 0.1% Triton X-100, 2 mM MgSO4, and 6 mM p-nitrophenyl phosphate. The reaction was stopped by adding 1M NaOH and absorbance was measured at 405 nm. Each value was normalized to the protein concentration.

HOb cells [3] = test: Cell viability (MTT) assay in HOb cells; details: 100 μM, 72 hours
Experimental: as §3, with “compounds” for “extracts”, “μM)” for “μg/ml)”, “Cell viability” for “ALP activity”, “MTT assay.” for “p-nitrophenyl phosphate disodium substrate.”
as §2, with “HOb cells were used for cell viability, differentiation, and mineralization assays.” left out
The cell viability of U. crinita extract and its constituents were determined using the MTT assay as described elsewhere (Scudiero et al., 1988). […] The absorbance at 600 nm was recorded using an ELISA reader. […]

Structure (SMILES) | formation of mineralized bone nodules (HOb cells [1]) | mineralization activity, ranking in words (HOb cells [1]; isolated compounds, 100 μM) | ALP activity (HOb cells [2]) | cell viability (HOb cells [3])
O=c1cc(-c2ccc(O)cc2)oc2cc(O)c(C3OCC(O)C(O)C3OC3OCC(O)(CO)C3O)c(O)c12 (stereo not shown) [Compound 3] | 150.10±0.80% | most potent mineralization activity | 109.68±2.20% | 
CC1=CC(=O)CC(C)(C)[C@H]1CC[C@@H](C)O[C@@H]1O[C@H](CO)[C@@H](O)[C@H](O)[C@H]1O [Compound 9, byzantionoside B] | 129.21±6.13% |  | 114.81±0.18% | 
Nc1ncnc2c1ncn2[C@@H]1O[C@H](CO)[C@@H](O)[C@H]1O [Compound 7, adenosine] | 125.21±3.75% |  | 108.70±4.14% | 
N[C@@H](Cc1c[nH]c2ccccc12)C(=O)O [Compound 5, tryptophan] |  |  |  | 80.43±1.11%
O=C1c2c(O)cc(O)cc2OCC1c1ccc(O)cc1O (stereo not shown) [Compound 1, dalbergioidin] | 107.09±2.80% |  | 114.10±4.41% | 
